Patent publication US20080214537A1, “BRIDGED PHENANTHRIDINES” (CARA THERAPEUTICS, INC., priority 2007, published 2008)

Experiments:
[1] = target: human CB2 receptor (hCB2) (Homo sapiens, UniProt P34972); assay: cAMP assay (LANCE TR-FRET) in CHO-K1 cells expressing hCB2; format: cell-based; conditions: for Emax: CHO-K1, read-out: hCB2 % Max Range; for EC50: CHO-K1 cells stably expressing hCB2, intracellular cAMP, NKH-477 prestimulated, average of at least three replicates
Procedure: (§1) The ability of compounds to act as agonists or inverse agonists at human CB2 and CB1 receptors (hCB2, hCB1, respectively) was determined by measuring changes in intracellular cAMP levels. Chinese Hamster Ovary (CHO-K1) cell lines stably expressing hCB2 (Genebank: X74328) or hCB1 (Genebank: X54937) were purchased from Euroscreen (Gosselies, Belgium).
(§2) Cell lines were grown in suspension in EX-CELL 302 CHO Serum-free medium (Sigma, catalog #14324C) supplemented with 1% Fetal Bovine Serum, glutamine and with or without non-essential amino-acids under 0.4 mg/mL G418 selection.
(§3) Receptor mediated responses were determined by measuring changes in intracellular cAMP using LANCE cAMP detection kit (catalog #AD0264, PerkinElmer, Wellesley, Mass.) based on time-resolved fluorescence resonance energy transfer (TR-FRET). Changes in cAMP were determined in cells pre-incubated with IBMX (isobutyl methylxanthine) and prestimulated with NKH-477 (a water soluble forskolin derivative, catalog #1603, Tocris, Ellisville, Mo.) to increase basal cAMP levels as detailed below.
(§4) On the day of the experiment, cells were spun at low speed for 5 min at room temperature. The supernatant was removed and cells were resuspended in stimulation buffer (Hanks Buffered Salt Solution/5 mM HEPES, containing 0.5 mM IBMX (catalog #17018, Sigma) and 0.02% BSA (PerkinElmer, catalog #CR84-100)). Cell clumps were removed by filtering through cell strainer 40 μm (BD Falcon, Discovery Labware, Bedford, Mass.) and diluted to 2×10^5 cells/mL. Antibody supplied with the LANCE cAMP immunoassay kit was then added according to the manufacturer's instructions. An aliquot of cells was taken for un-induced controls. To the remaining cells was added NKH-477 (a water soluble forskolin derivative, Tocris catalog #1603) to a final concentration of 2-8 μM. Cells were then incubated for either 25 or 30 min at room temperature prior to adding to Proxiplates containing test compounds (final DMSO concentration was less than 0.5%) with a Multidrop bulk dispenser, followed by a sixty minute incubation at room temperature. The response was stopped by addition of the detection mix supplied with the LANCE kit.
(§5) The reagents were allowed to equilibrate for three hours prior to reading on an Envision multi-mode detector (PerkinElmer). TR-FRET was measured using a 330-380 nm excitation filter, 615 and 665 nm emission filters, dichroic mirror 380 nm and Z=1 mm.
(§6) Cyclic AMP concentrations in each well were back-calculated from a cAMP standard curve run concurrently during each assay. Each plate contained 16 wells of forskolin stimulated cells and 16 wells of forskolin plus CP55,940-treated. CP55,940-treated cells were treated with CP55,940 (Tocris catalog #0949) at 1 μM and the maximal response was used as the full range (100%) standard. WIN55,212 (Tocris catalog #1038) was used as an internal standard. Concentrations of cAMP were expressed as a percent of the difference of these two groups of wells. Concentration-response data including EC50 (the concentration of compound producing 50% of the maximal response) and intrinsic activity (the percent maximal activation compared to full activation by CP55,940) were determined using a four-parameter non-linear regression algorithm (Xlfit equation 251, IDBS). Assays were performed with at least three replicates per compound and averaged results for the several compounds of the invention are shown in Table I.

[2] = target: human CB1 receptor (hCB1) (Homo sapiens, UniProt P21554); assay: cAMP assay (LANCE TR-FRET) in CHO-K1 cells expressing hCB1; format: cell-based; conditions: activity on hCB1 represents inverse agonism; for Emax: CHO-K1, percent of range defined by CP55,940 (1 μM = 100%), read-out: hCB1 % Max Range; for EC50: CHO-K1 cells stably expressing hCB1, intracellular cAMP, NKH-477 prestimulated
Procedure: as §1, §2, §3, §4, §5
as §6, with “IDBS).” for “IDBS). Assays were performed with at least three replicates per compound and averaged results for the several compounds of the invention are shown in Table I.”

[3] = intrinsic activity: percent maximal activation compared to full activation by CP55,940 (1 μM = 100%)

Chain of human CB2 receptor (hCB2) (P34972 whole entry): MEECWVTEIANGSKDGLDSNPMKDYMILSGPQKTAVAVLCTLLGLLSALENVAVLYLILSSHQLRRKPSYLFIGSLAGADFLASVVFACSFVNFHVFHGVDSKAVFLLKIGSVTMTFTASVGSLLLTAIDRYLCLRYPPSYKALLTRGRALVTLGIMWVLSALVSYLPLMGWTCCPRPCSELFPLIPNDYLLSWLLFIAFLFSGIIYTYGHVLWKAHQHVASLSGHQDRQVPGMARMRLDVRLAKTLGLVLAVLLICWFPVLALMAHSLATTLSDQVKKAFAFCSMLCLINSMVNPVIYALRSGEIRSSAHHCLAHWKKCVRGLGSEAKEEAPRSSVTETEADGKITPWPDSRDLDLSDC
Chain of human CB1 receptor (hCB1) (P21554 whole entry): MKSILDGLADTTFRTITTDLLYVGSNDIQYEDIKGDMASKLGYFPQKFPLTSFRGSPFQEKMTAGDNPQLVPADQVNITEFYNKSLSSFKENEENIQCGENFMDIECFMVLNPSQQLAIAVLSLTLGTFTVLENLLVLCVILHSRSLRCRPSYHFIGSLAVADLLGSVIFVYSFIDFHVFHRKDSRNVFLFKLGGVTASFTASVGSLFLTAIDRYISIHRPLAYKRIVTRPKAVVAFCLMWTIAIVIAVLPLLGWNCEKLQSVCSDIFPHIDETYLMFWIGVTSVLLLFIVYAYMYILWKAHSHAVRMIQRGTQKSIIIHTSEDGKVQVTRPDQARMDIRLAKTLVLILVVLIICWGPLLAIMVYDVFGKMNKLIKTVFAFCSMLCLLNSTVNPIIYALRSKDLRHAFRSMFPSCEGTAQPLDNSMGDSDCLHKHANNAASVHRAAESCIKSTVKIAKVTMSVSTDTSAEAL

Row | Structure (SMILES) | Emax [1, 3] [%] | EC50 [1] [nM] | Emax [2] [%] | EC50 [2] [nM] | hCB2 % Max Range [1, 3] | hCB1 % Max Range ([2]; percent of range defined by CP55,940 (1 μM = 100%)) [%]
1 | O=S(=O)(c1ccc2c(c1)C1C3CCC(C3)C1C(c1nccs1)N2)N1CCOCC1 (centres unmarked) [(36), Bridged 4-(6-(thiazol-2-yl)-5,6,6a,7,8,9,10,10a-octahydrophenanthridin-2-ylsulfonyl)morpholine] | 57.1 | 4120 | < 40 | > 10000 | – | –
2 | Cn1nccc1C1Nc2ccc(S(N)(=O)=O)cc2C2C3CCC(C3)C12 (centres unmarked) [(40), Bridged 6-(1-methyl-1H-pyrazol-5-yl)-5,6,6a,7,8,9,10,10a-octahydrophenanthridine-2-sulfonamide] | 82.7 | 2000 | < 40 | > 10000 | – | –
3 | O=S(=O)(c1ccc2c(c1)C1C3CCC(C3)C1C(c1c(Cl)cccc1Cl)N2)N1CCCCC1 (centres unmarked) [(9), Bridged 6-(2,6-dichlorophenyl)-2-(piperidin-1-ylsulfonyl)-5,6,6a,7,8,9,10,10a-octahydrophenanthridine] | 75 | 79.4 | < 40 | > 10000 | – | –
4 | O=S(=O)(c1ccc2c(c1)C1C3CCC(C3)C1C(c1cncnc1)N2)N1CCOCC1 (centres unmarked) [(35), Bridged 4-(6-(pyrimidin-5-yl)-5,6,6a,7,8,9,10,10a-octahydrophenanthridin-2-ylsulfonyl)morpholine] | 66.6 | 1300 | < 40 | > 10000 | – | –
5 | CCC1Nc2ccc(NC(=O)C3CC3)cc2C2C3CCC(C3)C12 (centres unmarked) [(21), Bridged N-(6-ethyl-5,6,6a,7,8,9,10,10a-octahydrophenanthridin-2-yl)cyclopropanecarboxamide] | 84 | 1200 | < 40 | > 10000 | – | –
6 | CN(C)S(=O)(=O)c1ccc2c(c1)C1C3CCC(C3)C1C(c1nccs1)N2 (centres unmarked) [(31), Bridged N,N-dimethyl-6-(thiazol-2-yl)-5,6,6a,7,8,9,10,10a-octahydrophenanthridine-2-sulfonamide] | 89.2 | 103 | < 40 | > 10000 | – | –
7 | CCCCC(=O)Nc1ccc2c(c1)C1C3CCC(C3)C1C(c1ccccc1)N2 (centres unmarked) [Compound (4d), Bridged N-(6-phenyl-5,6,6a,7,8,9,10,10a-octahydrophenanthridin-2-yl)pentanamide] | 92 | 6.9 | < 40 | > 10000 | – | –
8 | Cc1ccc(C2Nc3ccc(NC(=O)CC4CCCO4)cc3C3C4CCC(C4)C23)cc1 (centres unmarked) [(16), Bridged 2-(tetrahydrofuran-2-yl)-N-(6-p-tolyl-5,6,6a,7,8,9,10,10a-octahydrophenanthridin-2-yl)acetamide] | 52 | 102 | < 40 | > 10000 | – | –
9 | CC(=O)Nc1ccc2c(c1)C1C3CCC(C3)C1C(c1ccccc1)N2 (centres unmarked) [(23), Bridged N-(6-phenyl-5,6,6a,7,8,9,10,10a-octahydrophenanthridin-2-yl)acetamide] | 82 | 43 | 88 | 2610 | – | –
10 | Cc1nc(-c2ccc3c(c2)C2C4CCC(C4)C2C(c2ccccc2)N3)cs1 (centres unmarked) [(43), Bridged 2-methyl-4-(6-phenyl-5,6,6a,7,8,9,10,10a-octahydrophenanthridin-2-yl)thiazole] | 64.6 | 217 | 182 | 3850 | – | –
11 | O=C(NCc1ccccc1)c1ccc2c(c1)C1C3CCC(C3)C1C(c1ccccc1)N2 (centres unmarked) [(28), Bridged N-benzyl-6-phenyl-5,6,6a,7,8,9,10,10a-octahydrophenanthridine-2-carboxamide] | 84.4 | 373 | < 40 | > 10000 | – | –
12 | CC(=O)Nc1ccc2c(c1)C1C3CCC(C3)C1C(c1ccc(C)cc1)N2 (single isomer, unassigned) [(25b), Bridged N-(6-p-tolyl-5,6,6a,7,8,9,10,10a-octahydrophenanthridin-2-yl)acetamide] | – | > 10000 | – | 3540 | N/A (N/A: Response <40% assay range) | 107
13 | CCCCc1nnc(-c2ccc3c(c2)C2C4CCC(C4)C2C(c2ccccc2)N3)o1 (centres unmarked) [(45), Bridged 2-butyl-5-(6-phenyl-5,6,6a,7,8,9,10,10a-octahydrophenanthridin-2-yl)-1,3,4-oxadiazole] | 96.8 | 70.4 | < 40 | > 10000 | – | –
14 | NS(=O)(=O)c1ccc2c(c1)C1C3CCC(C3)C1C(c1ccccc1)N2 (centres unmarked) [(39), Bridged 6-phenyl-5,6,6a,7,8,9, 10,10a-octahydrophenanthridine-2-sulfonamide] | 83.3 | 17.7 | 172 | 3040 | – | –
15 | Cn1nccc1C1Nc2ccc(S(=O)(=O)N3CCOCC3)cc2C2C3CCC(C3)C12 (centres unmarked) [(37), Bridged 4-(6-(1-methyl-1H-pyrazol-5-yl)-5,6,6a,7,8,9,10,10a-octahydrophenanthridin-2-ylsulfonyl)morpholine] | 92.6 | 1.7 | < 40 | > 10000 | – | –
16 | CN(C)S(=O)(=O)c1ccc2c(c1)C1C3CCC(C3)C1C(c1ccnn1C)N2 (centres unmarked) [(33), Bridged N,N-dimethyl-6-(1-methyl-1H-pyrazol-5-yl)-5,6,6a,7,8,9,10,10a-octahydrophenanthridine-2-sulfonamide] | 94.9 | 7.5 | < 40 | > 10000 | – | –
17 | CCCNC(=S)Nc1ccc2c(c1)C1C3CCC(C3)C1C(c1ccccc1)N2 (centres unmarked) [(6), Bridged 1-propyl-3-(phenyl-5,6,6a,7,8,9,10,10a-octahydrophenanthridin-2-yl)thiourea] | 76 | 99.8 | 53 | 1860 | – | –
